Data from patent US20240350463A1, “SMALL MOLECULE COMPOUNDS” (APERTOR PHARMACEUTICALS, INC., priority 2021, published 2024).

Tests used:
[1] = stability during semi-preparative HPLC; assay type: physicochemical; details: approximately one fifth transformed spontaneously to a more nonpolar compound
Experimental: To accumulate 35-desmethylrapamycin (RAP35) and 35-desmethyl-27-demethoxyrapamycin (RAP35/27) for characterization and bioactivity assays, a 7.2-L scale of fermentation was conducted. 7.2 L fermentation medium was prepared and aliquoted into eighteen 2 L Erlenmeyer flasks 20 mL of the seed culture was inoculated into each 2 L Erlenmeyer flask, which was then capped with 8-layer gauze. The fermentation was conducted at 28° C., 220 rpm for 4 days. To process the culture, the fermentation broth was centrifuged at 9,000 g for 10 min at room temperature, and the cell pellet was collected and combined. After transferring the cells into a 5 L glass beaker, 2 volumes of acetonitrile were added into 1 volume of the cells. The mixture was stirred vigorously using a magnetic stirrer at room temperature for 1 h. The mixing was halted, and the mixture was allowed to settle under gravity for 30 min. The solvent layer was poured into a 5 L Erlenmeyer flask, and another 2 volumes of acetonitrile was added into the cells for extraction. After three times of extraction in total, the solvent layers were combined and concentrated under reduced pressure. […] The absorbance at 278 nm wavelength was monitored. […]

[2] = system: mTOR activity (phospho-p70S6K); assay: phospho-p70S6K FACS in activated mouse T-cells; assay type: cell-based
[3] = system: conventional T cells; assay: culture of conventional T cells with RAP35; assay type: cell-based
[4] = system: Treg cells; assay: treatment of Treg cells with expander beads; assay type: cell-based; details: 100 nM
[5] = system: naïve CD4+ mouse T cells; assay: FACS of naïve CD4+ T cells for CD4+CD25+FOXP3+; details: 1 uM
[6] = system: CD8 cells isolated from p14 transgenic mice; assay: CD8 CTV-labelled proliferation assay; assay type: cell-based, mouse; details: activated for 72 hours; 10 nM, 100 nM, and 100 μM
Experimental: The five analogs and rapamycin were assayed for their effect on proliferation and correlation to p70S6K inhibitory activity. […] The proliferation was measured by FACS. The five analogs were tested at varying concentrations (10 nM, 100 nM, and 100 μM), activated for 72 hours with rapamycin and DMSO treated controls.
CD8 cells were isolated from p14 transgenic mice, then labelled with CTV. The labelled cells then were activated with plate-bound anti-CD3 (5 μg/mL) and soluble anti-CD28 (2 μg/mL), along with rapamycin, rapamycin analog, or DMSO. After activation of 48 hours and 72 hours, the cells were collected to assay the CVT labelling signal using flow cytometry. All rapamycin analogs decrease proliferation in CD8 cells, with varying potency (FIG. 12).

[7] = system: naïve CD4+ mouse T-cells; assay: expansion of CD62L+ memory T-cells (FACS); assay type: cell-based
Experimental: RAP23 was further evaluated by treating naïve CD4+ T-cells at multiple concentrations (1 nM to 1 uM) for expansion of CD62L+ memory T-cells. […] These 5 compounds were identified to have reduced immunosuppression (with improved safety) with maximum and durable expansion of memory T-cells.

CO[C@H]1C[C@@H]2CC[C@@H](C)[C@@](O)(O2)C(=O)C(=O)N2CCCC[C@H]2C(=O)O[C@H](CC[C@@H]2CC[C@@H](O)[C@H](OC)C2)CC(=O)[C@H](C)/C=C(\C)[C@@H](O)CC(=O)[C@H](C)C[C@H](C)/C=C/C=C/C=C/1C [RAP35/27A, (3R,6R,7E,9S,12R,14S,5E,17E,19E,21S,23S,26R,27R,34aS)-9,27-dihydroxy-3-(2-((1S,3R,4R)-4-hydroxy-3-methoxycyclohexyl)ethyl)-21-methoxy-6,8,12,14,20,26-hexamethyl-9,10,12,13,14,21,22,23,24,25,26,27,32,33,34,34a-hexadecahydro-3H-23,27-epoxypyrido[2,1-c][1]oxa[4]azacyclohentriacontine-1,5,11,28,29(4H,6H,31H)-pentaone]
stability in the process of semi-preparation [1]: tended to be unstable

CO[C@H]1C[C@@H]2CC[C@@H](C)[C@@](O)(O2)C(=O)C(=O)N2CCCC[C@H]2C(=O)O[C@H](CC[C@@H]2CC[C@@H](O)[C@H](OC)C2)CC(=O)[C@H](C)/C=C(\C)[C@@H](O)[C@@H](OC)C(=O)[C@H](C)C[C@H](C)/C=C/C=C/C=C/1C [RAP35, (3R,6R,7E,9R,10R,2R,14S,15E,17E,19E,21S,23S,26R,27R,34aS)-9,27-dihydroxy-3-(2-((1S,3R,4R)-4-hydroxy-3-methoxycyclohexyl)ethyl)-10,21-dimethoxy-6,8,12,14,20,26-hexamethyl-9,10,12,13,14,21,22,23,24,25,26,27,32,33,34,34a-hexadecahydro-3H-23,27-epoxypyrido[2,1-c][1]oxa[4]azacyclohentriacontine-1,5,11,28,29(4H,6H,31H)-pentaone]
p70S6 high cells ([2]; overnight stimulation, therapeutic concentrations (1-200 nM)): significantly reduced
CCR7 expression [3]: increased
CD45RO expression [3]: decreased
level of phosphorylation of 4EBP1 and S6 ([3]; 100 nM): mTOR pathway was being targeted
anti-inflammatory effects ([3]; Cell Proliferation Dye and phenotypic markers): promising anti-inflammatory effects
expression of CCR7 [4]: reduce
expression of CD45RO [4]: reduce
expression of CXCR3 [4]: reduce
phosphorylation of 4EBP1 [4]: reduce
phosphorylation of S6 [4]: reduce
effect on differentiation [5]: strong effect

CO[C@H]1C[C@@H]2CC[C@@H](C)[C@@](O)(O2)C(=O)C(=O)N2CCCC[C@H]2C(=O)O[C@H]([C@H](C)C[C@@H]2CC[C@@H](O)[C@H](OC)C2)CC(=O)[C@H](C)/C=C(\C)[C@@H](O)[C@@H](OC)C(=O)[C@H](C)CC/C=C/C=C/C=C/1C [RAP23, (3S,6R,7E,9R,10R,12R,15E,17E,19E,21 S,23S,26R,27R,34aS)-9,27-dihydroxy-3-((R)-1-((1S,3R,4R)-4-hydroxy-3-methoxycyclohexyl)propan-2-yl)-10,21-dimethoxy-6,8,12,20,26-pentamethyl-9,10,12,13,14,21,22,23,24,25,26,27,32,33,34,34a-hexadecahydro-3H-23,27-epoxypyrido[2,1-c][1]oxa[4]azacyclohentriacontine-1,5,11,28,29(41H,6H,31H)-pentaone]
inhibition of p70S6 high signal ([2]; even at 1 uM): never fully inhibited
proliferation relative to RAP35 and rapamycin [6]: increased proliferation
generation of memory versus inhibition of proliferation [7]: promote potent generation of memory without potently inhibiting proliferation
phospho-p70S6K low/CD62L+ high phenotype relative to all doses of rapamycin ([7]; 1 nM to 1 uM): reduced
portion of cells with phospho-p70S6K high/CD62L+ high phenotype ([7]; 1 nM to 1 uM): 7-10%
